Results published in ChEMBL document CHEMBL2069212, “Identification and in vivo and in vitro characterization of long acting and melanocortin 4 receptor (MC4-R) selective α-melanocyte-stimulating hormone (α-MSH) analogues” (J Med Chem, 2012).
Active and inactive are the calls of the source. The calls are words filed in the database; no cut-off is given here.

Key:
Rattus norvegicus [1] = assay: Antiobesity activity in Sprague-Dawley rat assessed as reduction of food intake at 3 mg/kg, sc qd measured up to 7 hrs relative to control; format: functional; parameters: scale not given: the % may be the effect or the level left; settings: route subcutaneous
[2] = molecular target: Melanocyte-stimulating hormone receptor (Homo sapiens, UniProt Q01726); assay: Displacement of [125I]-NAD-alpha-MSH from human recombinant MC1 receptor expressed in BHK570 cells after 90 mins in presence of ovalbumin; format: cell-based
Chain of Melanocyte-stimulating hormone receptor (Q01726 whole entry): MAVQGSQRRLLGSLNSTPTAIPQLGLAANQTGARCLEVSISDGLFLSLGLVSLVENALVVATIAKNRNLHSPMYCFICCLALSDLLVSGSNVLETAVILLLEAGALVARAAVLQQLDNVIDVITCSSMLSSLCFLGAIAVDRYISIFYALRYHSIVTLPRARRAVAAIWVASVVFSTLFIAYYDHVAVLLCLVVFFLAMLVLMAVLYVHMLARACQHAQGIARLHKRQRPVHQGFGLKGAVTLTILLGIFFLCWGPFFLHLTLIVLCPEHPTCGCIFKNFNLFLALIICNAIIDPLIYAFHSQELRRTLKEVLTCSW

[3] = Half life in human; format: ADME, organism-based; settings: in vivo
Rattus norvegicus [4] = assay: Antiobesity activity in Sprague-Dawley rat assessed as reduction of food intake at 3 mg/kg, sc qd measured after 24 to 48 hrs relative to control; format: functional; settings: route subcutaneous
Rattus norvegicus [5] = assay: Antiobesity activity in Sprague-Dawley rat assessed as reduction of food intake at 3 mg/kg, sc qd measured after 7 to 24 hrs relative to control; format: functional; parameters: scale not given: the % may be the effect or the level left; settings: route subcutaneous
Melanocortin receptor 5 = Melanocortin receptor 5 (Homo sapiens, UniProt P33032); assay: Displacement of [125I]-NAD-alpha-MSH from human recombinant MC3 receptor human MC5 expressed in BHK570 cells after 1 hr in presence of ovalbumin; format: cell-based
Chain of Melanocortin receptor 5 (P33032 whole entry): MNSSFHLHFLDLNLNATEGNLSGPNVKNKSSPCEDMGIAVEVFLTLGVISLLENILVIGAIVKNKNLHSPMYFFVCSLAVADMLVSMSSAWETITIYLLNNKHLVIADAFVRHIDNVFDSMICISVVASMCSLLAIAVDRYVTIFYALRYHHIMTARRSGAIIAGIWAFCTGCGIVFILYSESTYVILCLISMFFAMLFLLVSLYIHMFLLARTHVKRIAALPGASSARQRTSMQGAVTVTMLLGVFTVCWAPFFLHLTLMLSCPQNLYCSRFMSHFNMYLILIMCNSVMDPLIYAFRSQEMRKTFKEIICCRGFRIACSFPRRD

[6] = Solubility of the compound at pH 3 to 8; format: physicochemical; settings: buffer
Melanocortin receptor 3 = Melanocortin receptor 3 (Homo sapiens, UniProt P41968); assay: Displacement of [125I]-NAD-alpha-MSH from human recombinant MC3 receptor expressed in BHK570 cells after 1 hr in presence of ovalbumin; format: cell-based
Chain of Melanocortin receptor 3 (P41968 whole entry): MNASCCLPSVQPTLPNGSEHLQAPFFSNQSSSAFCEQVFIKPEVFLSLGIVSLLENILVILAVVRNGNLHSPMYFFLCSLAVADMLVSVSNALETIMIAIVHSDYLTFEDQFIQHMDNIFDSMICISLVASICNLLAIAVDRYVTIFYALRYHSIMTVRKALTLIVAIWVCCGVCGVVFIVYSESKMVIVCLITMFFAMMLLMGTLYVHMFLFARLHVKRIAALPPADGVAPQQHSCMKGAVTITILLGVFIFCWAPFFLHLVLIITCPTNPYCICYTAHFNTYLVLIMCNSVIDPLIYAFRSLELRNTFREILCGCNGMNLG

Melanocortin receptor 4 [7] = molecular target: T1, Melanocortin receptor 4 (Homo sapiens, UniProt P32245); assay: Agonist activity at human recombinant MC4 receptor expressed in BHK570 cells assessed as induction of […] accumulation in presence of 0.1% human serum albumin; format: functional, cell-based
T1 sequence (P32245 whole entry): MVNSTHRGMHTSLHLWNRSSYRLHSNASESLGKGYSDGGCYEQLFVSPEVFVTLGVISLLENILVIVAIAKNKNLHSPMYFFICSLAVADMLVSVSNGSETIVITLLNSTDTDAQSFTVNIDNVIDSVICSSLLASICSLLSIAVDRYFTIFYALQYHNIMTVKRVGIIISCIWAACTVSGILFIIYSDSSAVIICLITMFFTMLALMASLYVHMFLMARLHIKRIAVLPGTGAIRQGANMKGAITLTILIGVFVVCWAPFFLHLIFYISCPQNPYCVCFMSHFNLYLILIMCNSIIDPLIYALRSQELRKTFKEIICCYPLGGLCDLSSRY

Melanocortin receptor 4 [8] = molecular target: T1, Melanocortin receptor 4; assay: Agonist activity at human recombinant MC4 receptor expressed in BHK570 cells assessed as induction of […] accumulation relative to alpha-MSH in presence of 0.1% human serum albumin; format: functional, cell-based
[9] = molecular target: Melanocortin receptor 4 (Rattus norvegicus) (UniProt P70596); assay: Agonist activity at rat MC4 receptor; format: functional
Chain of Melanocortin receptor 4 (Rattus norvegicus) (P70596 whole entry): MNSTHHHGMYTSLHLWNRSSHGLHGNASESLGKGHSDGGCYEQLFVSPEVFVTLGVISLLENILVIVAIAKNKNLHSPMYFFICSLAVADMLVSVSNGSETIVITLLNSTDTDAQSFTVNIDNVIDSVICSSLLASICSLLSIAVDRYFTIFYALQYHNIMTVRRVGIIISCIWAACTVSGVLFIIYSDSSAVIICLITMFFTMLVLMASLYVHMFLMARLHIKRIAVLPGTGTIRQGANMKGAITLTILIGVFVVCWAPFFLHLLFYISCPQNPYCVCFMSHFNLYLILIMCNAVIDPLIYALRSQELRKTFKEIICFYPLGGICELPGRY

Melanocortin receptor 4 [10] = molecular target: T1, Melanocortin receptor 4; assay: Displacement of [125I]-NAD-alpha-MSH from MC4 receptor after 2 hrs by gamma counting in presence of ovalbumin
[11] = Dissociation constant, pKa of the compound; format: physicochemical

Ki [2] | half-life [3] | Emax (Melanocortin receptor 4 [8]) | Activity [9] | Ki (Melanocortin receptor 4 [10]) | pKa [11] | SMILES | Activity (Rattus norvegicus [1]) | Food intake relative to control (Rattus norvegicus [4]) | Activity (Rattus norvegicus [5]) | Ki (Melanocortin receptor 5) | solubility [6] | Ki (Melanocortin receptor 3) | EC50 (Melanocortin receptor 4 [7])
6.4 nM | 2 h |  |  |  |  | CCCC[C@H](NC(C)=O)C(=O)N[C@H]1CC(=O)NCCCC[C@@H](C(=O)O)NC(=O)[C@H](Cc2c[nH]c3ccccc23)NC(=O)[C@H](CCCNC(=N)N)NC(=O)[C@@H](Cc2ccccc2)NC(=O)[C@H](Cc2c[nH]cn2)NC1=O [BREMELANOTIDE] | 23% | 100% | 91% |  |  |  | 
 |  |  |  |  |  | CCCC[C@H](NC(=O)[C@H](CNC(=O)CN(CC(=O)O)CC(=O)O)NC(=O)[C@H](Cc1cnc[nH]1)NC(=O)[C@H](CCC(N)=O)NC(=O)[C@H](CO)NC(=O)CNC(=O)COCCOCCNC(=O)CCCCCCCCCCCCCCCc1nnn[nH]1)C(=O)N[C@H]1CCC(=O)NCCCC[C@@H](C(N)=O)NC(=O)[C@H](Cc2c[nH]c3ccccc23)NC(=O)[C@H](CCCN=C(N)N)NC(=O)[C@@H](Cc2ccccc2)NC(=O)[C@@H]2C[C@@H](O)CN2C1=O |  |  |  | 13 nM | soluble | 71 nM | 88 nM
 |  | 77% |  |  |  | CCCC[C@H](NC(=O)[C@H](CCC(=O)O)NC(=O)[C@H](CCCNC(=N)N)NC(=O)[C@H](CCC(=O)O)NC(=O)[C@H](CCC(=O)O)NC(=O)CNC(=O)COCCOCCNC(=O)CCCCCCCCCCCCCCCc1nnn[nH]1)C(=O)N[C@H]1CCC(=O)NCCCC[C@@H](C(N)=O)NC(=O)[C@H](Cc2c[nH]c3ccccc23)NC(=O)[C@H](CCCNC(=N)N)NC(=O)[C@@H](Cc2ccccc2)NC(=O)[C@@H]2C[C@@H](O)CN2C1=O | 74% | 98% | 90% |  |  |  | 
 |  | 85% | Active |  |  | CCCC[C@H](NC(=O)[C@H](CNC(=O)CN(CC(=O)O)CC(=O)O)NC(=O)[C@H](Cc1cnc[nH]1)NC(=O)[C@H](CCC(N)=O)NC(=O)[C@H](CO)NC(=O)CNC(=O)COCCOCCNC(=O)CCCCCCCCCCCCCCCc1nnn[nH]1)C(=O)N[C@H]1CCC(=O)NCCCC[C@@H](C(N)=O)NC(=O)[C@H](Cc2c[nH]c3ccccc23)NC(=O)[C@H](CCCNC(=N)N)NC(=O)[C@@H](Cc2ccccc2)NC(=O)[C@@H]2C[C@@H](O)CN2C1=O | 53% | 66% | 39% |  |  |  | 
 |  |  | Active |  |  | CCCC[C@H](NC(=O)[C@H](CN)NC(=O)[C@H](Cc1cnc[nH]1)NC(=O)[C@H](CCC(N)=O)NC(=O)[C@H](CO)NC(=O)CNC(=O)COCCOCCNC(=O)CCCCCCCCCCCCCCCc1nnn[nH]1)C(=O)N[C@H]1CCC(=O)NCCCC[C@@H](C(N)=O)NC(=O)[C@H](Cc2c[nH]c3ccccc23)NC(=O)[C@H](CCCNC(=N)N)NC(=O)[C@@H](Cc2ccccc2)NC(=O)[C@@H]2C[C@@H](O)CN2C1=O | 49% | 73% | 45% |  |  |  | 
230 nM |  |  |  | 0.11 nM | 2 | CCCCCCCCCCCCCCCC(=O)NS(=O)(=O)CCCC(=O)NCC(=O)N[C@@H](CO)C(=O)N[C@@H](CCC(N)=O)C(=O)N[C@@H](Cc1cnc[nH]1)C(=O)N[C@@H](CO)C(=O)N[C@@H](CCCC)C(=O)N[C@H]1CCC(=O)NCCCC[C@@H](C(N)=O)NC(=O)[C@H](Cc2c[nH]c3ccccc23)NC(=O)[C@H](CCCNC(=N)N)NC(=O)[C@@H](Cc2ccccc2)NC(=O)[C@@H]2C[C@@H](O)CN2C1=O | 40% | 58% | 36% | 1.2 nM |  | 8.2 nM | 0.15 nM
